This is an account of results in patent US8524750B2, “(Pyrazol-3-yl)-1,3,4-thiadiazol-2-amine and (pyrazol-3-yl)-1,3,4-thiazol-2-amine compounds” (Glaxo Group Limited, priority 2009, dated 2013).

Values after ≈ are worked out from the molar mass of the structure shown.

Experiment [1] has as its system Mycobacterium tuberculosis H37Rv. Description: Mycobacterium tuberculosis H37Rv Inhibition Assay (Whole Cell Assay). Conditions: ATCC 25618 / H37Rv, H37Rv strain (ATCC25618), Middlebrook 7H9, six days at 37° C., resazurin fluorescence after 48 hours. Format: cell-based. Background: The colour change of resazurin is a common sign of viable cells or microbes.
The target of experiment [2] is T1, Mycobacterium tuberculosis InhA (Mycobacterium tuberculosis, UniProt P9WGR1).
T1 construct: made in house; host or cells: E. coli
Description: Mycobacterium tuberculosis InhA Inhibition Assay (Enzyme Assay). Format: biochemical. Conditions: IC50 value, 5 nM InhA, 50 μM DDCoA, 50 μM NADH, PIPES buffer pH 6.8; initial velocities of NADH consumption. The gist of the method: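 Recombinant Mtb InhA (E. coli-expressed), 5 nM, with 50 μM dodecenoyl-CoA and 50 μM NADH in 30 mM PIPES pH 6.8, 0.05% BSA; reaction started with enzyme. NADH fluorescence (ex 340/em 480 nm) followed 20 min at room temperature; IC50 from initial velocities of NADH consumption.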

T1 sequence (P9WGR1 whole entry, looked up): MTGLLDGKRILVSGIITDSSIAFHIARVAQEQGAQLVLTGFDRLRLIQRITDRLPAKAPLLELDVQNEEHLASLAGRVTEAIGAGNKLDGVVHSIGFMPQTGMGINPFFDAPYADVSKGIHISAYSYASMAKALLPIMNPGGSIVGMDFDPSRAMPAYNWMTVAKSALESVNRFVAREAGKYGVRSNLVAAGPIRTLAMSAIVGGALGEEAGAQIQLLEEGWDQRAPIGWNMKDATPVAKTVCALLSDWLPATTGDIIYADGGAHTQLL

Take `Cc1ccn(C(C)c2nnc(Nc3ccn(Cc4c(F)cccc4F)n3)s2)n1` (centres unmarked) [Example 76, N-{1-[(2,6-difluorophenyl)methyl]-1H-pyrazol-3-yl}-5-[1-(3-methyl-1H-pyrazol-1-yl)ethyl]-1,3,4-thiadiazol-2-amine]: the minimum inhibitory concentration (MIC) (usually the smallest concentration in the dilution series that meets the test's criterion for growth inhibition) in experiment [1] is no more than 1 µM. For the same compound, the half-inhibitory concentration (IC50) (usually the concentration at which inhibition is half-maximal) in experiment [2] is less than 125 nM.
With `Cc1cc(C)n(C(C)c2nnc(Nc3ccn(Cc4c(F)ccc(F)c4F)n3)s2)n1` (centres unmarked) [Example 77, 5-[1-(3,5-dimethyl-1H-pyrazol-1-yl)ethyl]-N-{1-[(2,3,6-trifluorophenyl)methyl]-1H-pyrazol-3-yl}-1,3,4-thiadiazol-2-amine], the minimum inhibitory concentration (MIC) in experiment [1] is no more than 1 µM. This compound gave an IC50 in experiment [2] of less than 115 nM.
In turn, `Cc1csc(C(C)(O)c2nnc(Nc3ccn(Cc4cccc(Cl)c4F)n3)s2)n1` (centres unmarked) [Example 79, 1-[5-({1-[(3-chloro-2-fluorophenyl)methyl]-1H-pyrazol-3-yl}amino)-1,3,4-thiadiazol-2-yl]-1-(4-methyl-1,3-thiazol-2-yl)ethanol] showed a minimum inhibitory concentration (MIC) in experiment [1] of no more than 1 µM. For the same compound, in experiment [2], the half-inhibitory concentration (IC50) was less than 111 nM.
For `Cc1csc(C(C)(O)c2nnc(Nc3ccn(Cc4cccc(F)c4F)n3)s2)n1` (centres unmarked) [Example 80, 1-[5-({1-[(2,3-difluorophenyl)methyl]-1H-pyrazol-3-yl}amino)-1,3,4-thiadiazol-2-yl]-1-(4-methyl-1,3-thiazol-2-yl)ethanol], the minimum inhibitory concentration (MIC) in experiment [1] is no more than 1 µM. In experiment [2], this compound yielded an IC50 of less than 115 nM.
The matching figures for `Cc1cc(C)n(C(C)c2nnc(Nc3ccn(Cc4c(F)ccc(C)c4F)n3)s2)n1` (centres unmarked) [Example 81, N-{1-[(2,6-difluoro-3-methylphenyl)methyl]-1H-pyrazol-3-yl}-5-[1-(3,5-dimethyl-1H-pyrazol-1-yl)ethyl]-1,3,4-thiadiazol-2-amine]: no more than 1 µM and less than 116 nM.
The matching figures for `CCOc1c(F)ccc(F)c1Cn1ccc(Nc2nnc(C(C)n3nc(C)cc3C)s2)n1` (centres unmarked) [Example 82, 5-[1-(3,5-dimethyl-1H-pyrazol-1-yl)ethyl]-N-(1-{[2-(ethyloxy)-3,6-difluorophenyl]methyl}-1H-pyrazol-3-yl)-1,3,4-thiadiazol-2-amine]: 4 to 10 µM (≈ 1.84 to 4.6 µg/mL) and less than 109 nM.
In experiment [1], `Cc1csc(C(C)(O)c2nnc(Nc3ccn(Cc4cccc(C)c4F)n3)s2)n1` (centres unmarked) [Example 83, 1-[5-({1-[(2-fluoro-3-methylphenyl)methyl]-1H-pyrazol-3-yl}amino)-1,3,4-thiadiazol-2-yl]-1-(4-methyl-1,3-thiazol-2-yl)ethanol] showed an MIC of no more than 1 µM. Also, in experiment [2], the IC50 is less than 116 nM.
Compound `Cc1csc(C(C)(O)c2nnc(Nc3ccn(Cc4c(F)ccc(C)c4F)n3)s2)n1` (centres unmarked) [Example 84, 1-[5-({1-[(2,6-difluoro-3-methylphenyl)methyl]-1H-pyrazol-3-yl}amino)-1,3,4-thiadiazol-2-yl]-1-(4-methyl-1,3-thiazol-2-yl)ethanol] came in with an MIC in experiment [1] of no more than 1 µM. Besides, the concentration for half-maximal inhibition (IC50) in experiment [2] was less than 111 nM.
Compound `Cc1csc(C(C)c2nnc(Nc3ccn(Cc4c(F)ccc(C)c4F)n3)s2)n1` (centres unmarked) [Example 85, N-{1-[(2,6-difluoro-3-methylphenyl)methyl]-1H-pyrazol-3-yl}-5-[1-(4-methyl-1,3-thiazol-2-yl)ethyl]-1,3,4-thiadiazol-2-amine] displayed an MIC in experiment [1] of 1 to 4 µM (≈ 0.433 to 1.73 µg/mL). The 50% inhibitory concentration (IC50) in experiment [2] is less than 116 nM.
In turn, `Cc1ccn(C(C)c2nnc(Nc3ccn(Cc4c(F)ccc(C)c4F)n3)s2)n1` (centres unmarked) [Example 86, N-{1-[(2,6-difluoro-3-methylphenyl)methyl]-1H-pyrazol-3-yl}-5-[1-(3-methyl-1H-pyrazol-1-yl)ethyl]-1,3,4-thiadiazol-2-amine] came in with an MIC in experiment [1] of no more than 1 µM. In addition, the IC50 in experiment [2] is less than 120 nM.
For `Cc1cc(C)n(C(C)c2nnc(Nc3ccn(Cc4c(F)ccc(N)c4F)n3)s2)n1` (centres unmarked) [Example 87, N-{1-[(3-amino-2,6-difluorophenyl)methyl]-1H-pyrazol-3-yl}-5-[1-(3,5-dimethyl-1H-pyrazol-1-yl)ethyl]-1,3,4-thiadiazol-2-amine] the same measures were 1 to 4 µM (≈ 0.43 to 1.72 µg/mL) and less than 116 nM.
Compound `CCOC(=O)Nc1cccc(Cn2ccc(Nc3nnc(C(C)(O)c4nc(C)cs4)s3)n2)c1F` (centres unmarked) [Intermediate 121, Ethyl (2-fluoro-3-{[3-({5-[1-hydroxy-1-(4-methyl-1,3-thiazol-2-yl)ethyl]-1,3,4-thiadiazol-2-yl}amino)-1H-pyrazol-1-yl]methyl}phenyl)carbamate] gave an MIC in experiment [1] of 1 to 4 µM (≈ 0.504 to 2.01 µg/mL). Further, the half-inhibitory concentration (IC50) in experiment [2] is less than 99.3 nM.
In the case of `CC(=O)Nc1ccc(F)c(Cn2ccc(Nc3nnc(C(C)n4nc(C)cc4C)s3)n2)c1F` (centres unmarked) [Intermediate 122, N-(3-{[3-({5-[1-(3,5-dimethyl-1H-pyrazol-1-yl)ethyl]-1,3,4-thiadiazol-2-yl}amino)-1H-pyrazol-1-yl]methyl}-2,4-difluorophenyl)acetamide], the MIC in experiment [1] is greater than 10 µM. In experiment [2], this compound displayed an IC50 of 106 to 212 nM.
